“Also recorded” adds a separate entry of the source. Where a SMILES comes first, the peptide text is derived from it. Where no end group is shown, it is not given here.

The first data set deals with human tumor cells. Description: Cytotoxic activity screening of peptide library on human tumor cell lines, SRB method. The settings on record: SRB method; cytotoxic = dose-dependent 50% inhibition of proliferation, GI50 below 100 μM in at least one cell line. The format is cell-based. As for the experimental part:
Negative control cells were cultured on a volume of vehicle equal to that of the experimental samples. An “x-y” curve (dose-response) was established with the percent of surviving cells, compared in respect to the negative control cells, and the following parameters were estimated: 50% growth inhibition (GI50); Total growth inhibition (TGI); and the lethal concentration 50 (LC50), that is the concentration causing the 50% of cell death (Boyd M R, Paull K D, and Rubinstein L R (1992) “Data display and analysis strategies for the NCI Disease Oriented In-Vitro Antitumor Drug Screen, in Cytotoxic Anticancer Drugs: Models and Concept for Drug Discovery and Development” (Baleriote F A, Corbett T H and Baker L H eds) pp 11-34, Kluwer Academia Publishers, Boston).
Were considered as cytotoxic peptides all those peptides being able of inhibiting 50% of the cellular proliferation, in a dose-dependent manner, and showing GI50 values below 100 μM, at least in one of the cell lines studied. The human tumor cell lines used were: HEp-2 (larynx carcinoma), A549 (lung epithelial adenocarcinoma), M14 (melanoma), Colo 205 (colon adenocarcinoma), Ls174T (colon adenocarcinoma), LnCAP (prostate carcinoma), PC-3 (prostate carcinoma) and H 125 (non-small cell lung adenocarcinoma). Represented are primary sequences for the designed peptides, the code used for its generation and their respective cytotoxic capacity on human tumor cells.
(The SRB assay estimates cell density from bound dye.)
Consider `CC[C@H](C)[C@H](NC(=O)[C@H](Cc1ccccc1)NC(=O)[C@@H](N)CC(=O)O)C(=O)N[C@@H](Cc1c[nH]cn1)C(=O)N[C@@H](Cc1ccccc1)C(=O)N[C@H](C(=O)N[C@@H](CC(=O)O)C(=O)N[C@@H](Cc1c[nH]cn1)C(=O)N[C@@H](Cc1ccccc1)C(=O)N[C@@H](CO)C(=O)NCC(=O)N[C@H](C(=O)N[C@@H](C)C(=O)NCC(=O)N[C@@H](CCC(=O)O)C(=O)N[C@@H](C)C(=O)N[C@@H](CC(C)C)C(=O)N[C@@H](CC(C)C)C(=O)N[C@@H](CO)C(=O)N[C@@H](Cc1ccc(O)cc1)C(N)=O)[C@@H](C)O)C(C)C` [Peptide O07P107] (H-DFIHFVDHFSGTAGEALLSY-NH2), for which the “Cytotoxic activity in vitro” value was “− (symbol − indicates its absence, following criteria established in Example 2)”.

`CC[C@H](C)[C@H](NC(=O)[C@@H](NC(=O)[C@H](CCCCN)NC(=O)[C@H](CCC(N)=O)NC(=O)[C@H](CO)NC(=O)[C@H](CC(N)=O)NC(=O)[C@H](CO)NC(=O)[C@@H](NC(=O)[C@@H](NC(=O)[C@H](CO)NC(=O)[C@H](CC(C)C)NC(=O)[C@H](Cc1ccccc1)NC(=O)[C@H](CC(=O)O)NC(=O)[C@H](CCCNC(=N)N)NC(=O)CNC(=O)[C@@H](N)[C@@H](C)O)[C@@H](C)O)[C@@H](C)O)C(C)C)C(=O)N[C@@H](Cc1ccccc1)C(=O)N[C@@H](C)C(=O)N[C@@H](C)C(=O)N[C@@H](Cc1c[nH]c2ccccc12)C(N)=O` [Peptide F07P16] (H-TGRDFLSTTSNSQKVIFAAW-NH2): the “Cytotoxic activity in vitro” value is “− (symbol − indicates its absence, following criteria established in Example 2)”.

With `CC[C@H](C)[C@H](NC(=O)CNC(=O)[C@H](CCCCN)NC(=O)[C@H](CCC(N)=O)NC(=O)[C@H](Cc1ccccc1)NC(=O)[C@H](CC(=O)O)NC(=O)[C@H](CCCNC(=N)N)NC(=O)[C@@H](NC(=O)[C@H](Cc1c[nH]c2ccccc12)NC(=O)[C@H](CC(=O)O)NC(=O)[C@H](CO)NC(=O)[C@H](C)NC(=O)CNC(=O)[C@@H]1CCCN1C(=O)[C@H](C)N)[C@@H](C)CC)C(=O)N[C@@H](CC(=O)O)C(=O)N[C@@H](CCCCN)C(=O)N[C@H](C(=O)N[C@@H](CC(=O)O)C(=O)N[C@@H](CC(C)C)C(N)=O)[C@@H](C)CC` [Peptide O07P104] (H-APGASDWIRDFQKGIDKIDL-NH2), the “Cytotoxic activity in vitro” value was “− (symbol − indicates its absence, following criteria established in Example 2)”.

On to `CC[C@H](C)[C@H](NC(=O)[C@H](CC(=O)O)NC(=O)[C@H](CCCCN)NC(=O)CNC(=O)[C@H](C)NC(=O)CNC(=O)CNC(=O)[C@H](Cc1c[nH]c2ccccc12)NC(=O)[C@H](CC(C)C)NC(=O)[C@H](CCC(=O)O)NC(=O)[C@@H](N)CC(=O)O)C(=O)N[C@@H](Cc1ccccc1)C(=O)N[C@H](C(=O)N[C@@H](Cc1ccccc1)C(=O)N[C@@H](CO)C(=O)N[C@@H](C)C(=O)N[C@@H](C)C(=O)N[C@@H](CO)C(=O)N[C@@H](CC(=O)O)C(=O)N[C@@H](CO)C(N)=O)C(C)C` [Peptide O07P102] (H-DELWGGAGKDIFVFSAASDS-NH2), for which the “Cytotoxic activity in vitro” value is reported as “− (symbol − indicates its absence, following criteria established in Example 2)”.

As for `CC[C@H](C)[C@H](NC(=O)[C@H](CC(N)=O)NC(=O)[C@@H](N)C(C)C)C(=O)NCC(=O)NCC(=O)N[C@@H](Cc1c[nH]cn1)C(=O)N[C@@H](CCC(N)=O)C(=O)N[C@@H](C)C(=O)N1CCC[C@H]1C(=O)N[C@@H](CC(=O)O)C(=O)N[C@@H](Cc1ccccc1)C(=O)N[C@@H](CC(C)C)C(=O)N[C@H](C(=O)N[C@@H](CCCCN)C(=O)N[C@H](C(=O)N[C@H](C(=O)NCC(=O)N[C@@H](CCC(N)=O)C(=O)N[C@H](C(=O)N[C@@H](CC(=O)O)C(N)=O)C(C)C)C(C)C)[C@@H](C)CC)C(C)C` [Peptide E07P02] (H-VNIGGHQAPDFLVKIVGQVD-NH2), the “Cytotoxic activity in vitro” value is “− (symbol − indicates its absence, following criteria established in Example 2)”.

Consider `CC[C@H](C)[C@H](NC(=O)[C@H](C)NC(=O)[C@H](CC(N)=O)NC(=O)[C@H](CCC(=O)O)NC(=O)[C@@H](NC(=O)[C@@H](NC(=O)[C@@H](NC(=O)CN)C(C)C)[C@@H](C)O)[C@@H](C)CC)C(=O)NCC(=O)NCC(=O)N[C@@H](CO)C(=O)NCC(=O)N[C@@H](CC(N)=O)C(=O)N[C@@H](CC(=O)O)C(=O)N[C@H](C(=O)N[C@H](C(=O)N[C@H](C(=O)NCC(=O)N[C@@H](CC(N)=O)C(=O)N[C@@H](C)C(N)=O)C(C)C)[C@@H](C)CC)C(C)C` [Peptide A07P45] (H-GVTIENAIGGSGNDVIVGNA-NH2), for which the “Cytotoxic activity in vitro” value is reported as “− (symbol − indicates its absence, following criteria established in Example 2)”.

For `CC[C@H](C)[C@H](NC(=O)CNC(=O)[C@H](CCCCN)NC(=O)[C@H](CCC(N)=O)NC(=O)[C@@H](N)Cc1ccccc1)C(=O)N[C@@H](CC(=O)O)C(=O)N[C@@H](CCCCN)C(=O)N[C@H](C(=O)N[C@@H](CC(=O)O)C(=O)N[C@@H](CC(C)C)C(=O)N[C@@H](CO)C(=O)N[C@@H](Cc1ccccc1)C(=O)N[C@@H](Cc1ccccc1)C(=O)N[C@@H](CC(N)=O)C(=O)N[C@@H](CCCCN)C(=O)N[C@@H](CCC(=O)O)C(=O)N[C@@H](C)C(=O)N[C@@H](CC(N)=O)C(=O)N[C@@H](CO)C(=O)N[C@@H](CO)C(N)=O)[C@@H](C)CC` [Peptide O07P105] (H-FQKGIDKIDLSFFNKEANSS-NH2), the “Cytotoxic activity in vitro” value was “− (symbol − indicates its absence, following criteria established in Example 2)”.

Regarding “NSQKVIFAAWDAGGNDTFDF- amide (NSQKVIFAAWDAGGNDTFDF-NH2) [Peptide M07P38]”, the “Cytotoxic activity in vitro” value was “− (symbol − indicates its absence, following criteria established in Example 2)”.

As for `C[C@H](NC(=O)[C@H](C)NC(=O)[C@H](Cc1ccc(O)cc1)NC(=O)[C@H](Cc1c[nH]cn1)NC(=O)CNC(=O)CNC(=O)[C@H](CC(N)=O)NC(=O)[C@H](CC(=O)O)NC(=O)CNC(=O)CNC(=O)[C@@H](NC(=O)[C@H](CC(N)=O)NC(=O)[C@@H](NC(=O)[C@H](CCC(=O)O)NC(=O)[C@H](CO)NC(=O)[C@H](Cc1c[nH]c2ccccc12)NC(=O)[C@H](Cc1ccc(O)cc1)NC(=O)[C@@H](N)CO)[C@@H](C)O)[C@@H](C)O)C(=O)N[C@@H](C)C(=O)N1CCC[C@H]1C(N)=O` [Peptide D06P91] (H-SYWSETNTGGDNGGHYAAAP-NH2), the “Cytotoxic activity in vitro” value was “− (symbol − indicates its absence, following criteria established in Example 2)”.

For the compound `CC(C)C[C@H](NC(=O)[C@H](CCC(=O)O)NC(=O)[C@H](CC(=O)O)NC(=O)[C@H](C)NC(=O)CNC(=O)CNC(=O)CNC(=O)CNC(=O)[C@H](Cc1ccccc1)NC(=O)[C@H](CC(C)C)NC(=O)[C@@H](NC(=O)[C@H](CC(=O)O)NC(=O)[C@@H](N)CC(N)=O)C(C)C)C(=O)N[C@@H](Cc1c[nH]c2ccccc12)C(=O)NCC(=O)NCC(=O)N[C@@H](C)C(=O)NCC(=O)N[C@@H](CCCCN)C(=O)N[C@@H](CC(=O)O)C(N)=O` [Peptide A07P46] (H-NDVLFGGGGADELWGGAGKD-NH2), the “Cytotoxic activity in vitro” value is on record as “− (symbol − indicates its absence, following criteria established in Example 2)”.

`CC[C@H](C)[C@H](NC(=O)[C@H](CO)NC(=O)[C@@H](NC(=O)[C@H](CC(N)=O)NC(=O)CNC(=O)[C@H](CCCCN)NC(=O)[C@H](CC(C)C)NC(=O)CNC(=O)CNC(=O)[C@@H](NC(=O)[C@H](CC(=O)O)NC(=O)[C@H](CO)NC(=O)[C@H](Cc1ccccc1)NC(=O)[C@H](CO)NC(=O)[C@H](CCCCN)NC(=O)[C@H](CCC(=O)O)NC(=O)[C@H](CC(N)=O)NC(=O)[C@@H](N)CC(C)C)C(C)C)C(C)C)C(=O)N[C@@H](C)C(=O)N[C@@H](C)C(N)=O` [Peptide A07P47] (H-LNEKSFSDVGGLKGNVSIAA-NH2): the “Cytotoxic activity in vitro” value is on record as “− (symbol − indicates its absence, following criteria established in Example 2)”.

The data set is the same for the next values; noted with them: peptide library screening.
`CC[C@H](C)[C@H](NC(=O)[C@@H](NC(=O)[C@H](CCCCN)NC(=O)[C@H](CCC(N)=O)NC(=O)[C@H](CO)NC(=O)[C@H](CC(N)=O)NC(=O)[C@H](CO)NC(=O)[C@@H](NC(=O)[C@@H](NC(=O)[C@H](CO)NC(=O)[C@H](CC(C)C)NC(=O)[C@H](Cc1ccccc1)NC(=O)[C@H](CC(=O)O)NC(=O)[C@H](CCCNC(=N)N)NC(=O)CNC(=O)[C@@H](N)[C@@H](C)O)[C@@H](C)O)[C@@H](C)O)C(C)C)C(=O)N[C@@H](Cc1ccccc1)C(=O)N[C@@H](C)C(=O)N[C@@H](C)C(=O)N[C@@H](Cc1c[nH]c2ccccc12)C(N)=O` [Peptide F07P16] (H-TGRDFLSTTSNSQKVIFAAW-NH2): the “cytotoxic / biological activity in vitro on tumor cells” value was “no cytotoxic activity; also recorded: inactive”.

The values are drawn from patent US9375459B2, “Cyclic peptides with an anti-neoplasic and anti-angiogenic activity” (priority 2011, dated 2016).
